Several values for one entry are separate records, joined by “and”; a condition that tells them apart may be missing. Equal entries are not always repeated.
Assays:
AGS cells = assay: Cell cycle analysis (propidium iodide); format: cell-based, human; settings: 48 h
Protocol: The AGS cells were seeded in a 6-well plate (5 × 10^5 cells/well) and incubated with compound 5 at concentrations of 1, 5, and 10 µg/mL for 48 h; oxaliplatin at the concentration of 40 µg/mL; and DMSO (0.2%, v/v). After treatment, the cells were stained with propidium iodide from the Muse Cell Cycle Assay Kit (Merck Millipore, Burlington, MA, USA), and the amount of cells in each phase of the cell cycle was determined using the Muse Cell Analyzer (Merck Millipore, Burlington, MA, USA). The experiment was independently repeated three times.

neutrophil elastase = target: T1, neutrophil elastase (Sus scrofa, UniProt P00772); assay: Elastase assay (SANA substrate); format: biochemical, porcine; settings: Tris-HCl pH 8.0, SANA substrate; read-out: neutrophil elastase inhibition IC50 (converted)
T1 construct: purchased Sigma Chemical Co. (St. Louis, MO, USA)
T1 sequence (P00772 27-266): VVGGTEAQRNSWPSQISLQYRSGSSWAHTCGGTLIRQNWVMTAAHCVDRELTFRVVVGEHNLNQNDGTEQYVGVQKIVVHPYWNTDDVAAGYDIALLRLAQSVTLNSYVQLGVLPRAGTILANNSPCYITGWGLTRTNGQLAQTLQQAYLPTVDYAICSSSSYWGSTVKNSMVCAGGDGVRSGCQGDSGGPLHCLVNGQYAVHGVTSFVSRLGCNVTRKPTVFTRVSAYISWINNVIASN
Protocol: The elastase analysis was performed according to the spectrophotometric method with oleanolic acid as a reference. The reaction mixture (Tris-HCl buffer (pH 8.0), 1.0 μg/mL porcine pancreatic elastase, and different concentrations of chalcone derivatives was preincubated at room temperature for 15 min. Afterwards, the addition of the substrate—SANA—started the reaction. Product formation changes were analyzed at λ = 410 nm for 20 min every 20 s (Epoch, BioTek Instruments, Santa Clara, CA, USA). The control was composed of Tris-HCl buffer (pH 8.0), an appropriate concentration of the chalcone derivative, and SANA.

[1] = system: Bacillus cereus PCM 1948,2019 (ATCC11778); assay: MIC determination; format: cell-based; settings: 37 °C, 48 h
Protocol: (§1) The MIC determinations for Staphylococcus epidermidis ATCC14990, Staphylococcus aureus ATCC6538, Enterococcus faecalis ATCC51299, Klebsiella pneumoniae ATCC13883, Escherichia coli ATCC8739, Salmonella enterica ATCC13076, Helicobacter pylori ATCC43504, Campylobacter jejuni ZMF, Campylobacter coli ZMF, Bacillus cereus PCM 1948,2019 (ATCC11778), and Listeria monocytogenes PCM2191 were performed based on the methodology described by Krauze-Baranowska et al.. The procedure for H. pylori was used in the experiments with Campylobacter strains, and the procedure for B. subtilis was used in the experiments with L. monocytogenes and B. cereus. The tested samples were dissolved in DMSO and diluted with water (concentration of approximately 500 μg/mL). The solutions were diluted geometrically by transferring the mixture/dilution (100 μL) from the first to the twelfth well of the microtiter plate. The final concentrations of samples used for antimicrobial effects ranged from 500 to 0.006 µg/mL. Ampicillin was used as a reference compound in the concentration range of 128 to 0.0625 µg/mL. The tests were incubated at 37 °C for 48 h. The diluent concentration had no effect on the activity of the tested compounds. All experiments were performed in triplicate.

[2] = system: Enterococcus faecalis ATCC51299; assay: MIC determination; format: cell-based; settings: 37 °C, 48 h
Protocol: as §1

[3] = system: Listeria monocytogenes PCM2191; assay: MIC determination; format: cell-based; settings: 37 °C, 48 h
Protocol: as §1

[4] = system: Staphylococcus epidermidis ATCC14990; assay: MIC determination; format: cell-based; settings: 37 °C, 48 h
Protocol: as §1

[5] = system: Helicobacter pylori ATCC43504; assay: MIC determination; format: cell-based; settings: 37 °C, 48 h
Protocol: as §1

[6] = system: Salmonella enterica ATCC13076; assay: MIC determination; format: cell-based; settings: 37 °C, 48 h
Protocol: as §1

Campylobacter coli ZMF = assay: MIC determination; format: cell-based; settings: 37 °C, 48 h
Protocol: as §1

[7] = system: Klebsiella pneumoniae ATCC13883; assay: MIC determination; format: cell-based; settings: 37 °C, 48 h
Protocol: as §1

[8] = system: Staphylococcus aureus ATCC6538; assay: MIC determination; format: cell-based; settings: 37 °C, 48 h
Protocol: as §1

[9] = system: Escherichia coli ATCC8739; assay: MIC determination; format: cell-based; settings: 37 °C, 48 h
Protocol: as §1

Campylobacter jejuni ZMF = assay: MIC determination; format: cell-based; settings: 37 °C, 48 h
Protocol: as §1

[10] = DPPH radical scavenging assay; settings: concentration of 800 µg/mL
Protocol: The DPPH radical scavenging assay of samples (ligands or complexes) was performed with ascorbic acid as a standard. Different concentrations of chalcone derivatives, dissolved in DMSO, were mixed with the same amount of 0.06 mM DPPH methanolic solution and incubated at room temperature in the dark for 30 min. The absorbance was analyzed at λ = 517 nm using a 96-well microplate reader (Epoch, BioTek System, Winooski, VT, USA). The control was composed of DPPH and DMSO. DPPH inhibition was calculated according to the following Formula (2):DPPH Inhibition (%) = [(Acontrol − Asample)/Acontrol] × 100%(2)

IC50 (neutrophil elastase): 121 µM
MIC [1]: > 500 µg/mL
MIC [2]: > 500 µg/mL
MIC [3]: > 500 µg/mL
MIC [4]: > 500 µg/mL
MIC [5]: > 500 µg/mL
MIC [6]: > 500 µg/mL
MIC (Campylobacter coli ZMF): > 500 µg/mL
MIC [7]: > 500 µg/mL
MIC [8]: > 500 µg/mL
MIC [9]: > 500 µg/mL
MIC (Campylobacter jejuni ZMF): > 500 µg/mL
SMILES: Cc1cc(S(=O)(=O)Nc2ccc(C(=O)/C=C/c3ccc(Br)cc3)cc2)c(Cl)cc1Cl [Compound 5, (E)-N-{4-[3-(4-Bromophenyl)acryloyl]phenyl}-2,4-Dichloro-5-Methylbenzenesulfonamide]
cells in G0/G1 phase (AGS cells; 1 µg/mL): 41.4%
cells in G2/M phase (AGS cells; 1 µg/mL): 43.0%
cells in S phase (AGS cells; 1 µg/mL): 14.6%
cells in G1 (G0/G1) phase (AGS cells; 10 µg/mL): 34.9% and 34.47% ± 2.87%
cells in G2/M phase (AGS cells; 10 µg/mL): 23.1% and 21.50% ± 1.50%
cells in S phase (AGS cells; 10 µg/mL): 15.5% and 13.78% ± 1.70%
cells in subG0 phase (AGS cells; 10 µg/mL): 27.1% ± 0.87%
% of DPPH radical inhibition [10]: 30.18 ± 0.23%
